Assay results from patent US6846500B1, “Oral care chewing gums and method of use” (Cadbury Adams USA LLC, priority 1999, dated 2005).

Experiment: Calcium precipitation on mixing CPP-ACP and sodium bicarbonate; calcium retained on filter by Atomic Absorption
Format: physicochemical, human
Description: The in vivo test was done to first determine the release of CPP-ACP. A five person panel chewed a gum containing 1% CPP-ACP. […] CPP-ACP and sodium bicarbonate at these concentration were incubated in a 30 ml pooled human saliva with moderate shaking at 37° C. for 3 minutes to test precipitation upon consumption of the gum and at 1 hour to show how longer contact time would precipitate calcium carbonate. The resultant pH of the incubation solution was approximately 7. The solution was filtered, the retentate was rinsed with deionized H2O to remove any soluble calcium and the result was analyzed for calcium content by Atomic Absorption analysis. As a control an aqueous solution of 30 g of a 0.3% CPP-ACP solution was pass through the filter paper.

SMILES: O=C([O-])O.[Na+] [NaHCO3, sodium bicarbonate]
- Calcium retained (30 g of saliva stored at 37° C. for 3 minutes): 1.700 mg
- Calcium retained (30 g of saliva stored at 37° C. for 3 minutes, listed as sodium bicarbonate): 1.7 mg
- Calcium retained (30 g of saliva stored at 37° C. for 1 hour): 1.600 mg
